Data reported in the PolyMetriX glass transition set.
± gives the standard deviation of the reports.

Structure (SMILES)	glass transition temperature [°C]
*Nc1ccc(Cc2ccc(NC(=O)c3cc(NC(=O)CCCCCCCCCCN4C(=O)c5ccccc5C4=O)cc(C(*)=O)c3)cc2)cc1 (repeat unit)	150.00
*CCCCCCCCc1nc2cc(-c3ccc4[nH]c(*)nc4c3)ccc2[nH]1 (repeat unit)	234.00
*CCCCCCOC(=O)c1cc(OCCCCCCOc2ccc(/N=N/c3ccc(C#N)cc3)cc2)cc(C(=O)OCCCCCCN2C(=O)c3ccc(-c4ccc(-c5ccc6c(c5)C(=O)N(*)C6=O)cc4)cc3C2=O)c1 (repeat unit)	67.00
*CC(*)c1ccc(CC)cc1 (repeat unit)	71.40
*CCN(CCOC(=O)Nc1ccc(C)c(NC(=O)O*)c1)c1ccc(/N=N/c2ccc(/C=C/c3nc4ccc([N+](=O)[O-])cc4n3CC)cc2)cc1 (repeat unit)	171.00
*c1ccc(Oc2ccc(-c3ccc(Oc4ccc(-c5ncc(*)o5)cc4C(F)(F)F)cc3)cc2)c(C(F)(F)F)c1 (repeat unit)	200.00
*CCCCCCNC(=O)CCC1(CCC(=O)N*)c2ccccc2-c2ccccc21 (repeat unit)	122.00
*Oc1ccc(CC(NC(=O)CCc2ccc(OC(=O)CCC(*)=O)cc2)C(=O)OC(C)CC)cc1 (repeat unit)	75.00
*c1ccc(Cc2ccc(N3C(=O)c4cc(-c5ccc([Si](C)(C)C)cc5)c(-c5cc6c(cc5-c5ccc([Si](C)(C)C)cc5)C(=O)N(*)C6=O)cc4C3=O)cc2)cc1 (repeat unit)	348.00
*CC(*)C(=O)OCCCCCCCCCCOC(=O)c1ccc(OC(=O)c2ccc(C#N)cc2)cc1 (repeat unit)	15.00
*Oc1ccc(C(=O)c2cccc(NC(=O)CCCCCCCCC(=O)Nc3cccc(C(=O)c4ccc(*)cc4)c3)c2)cc1 (repeat unit)	141.00
*Nc1cc(NC(=O)c2cc(OCCCS(=O)(=O)c3ccc(/N=N/c4ccc(N(C)C)cc4)cc3)cc(C(*)=O)c2)cc(C(=O)OCCCN(C)c2ccc(/N=N/c3ccc(S(C)(=O)=O)cc3)cc2)c1 (repeat unit)	166.00
*c1cccc(OCCCCCCCCOc2cccc(N3C(=O)c4ccc(-c5ccc6c(c5)C(=O)N(*)C6=O)cc4C3=O)c2)c1 (repeat unit)	138.00
*Oc1ccc(CC(NC(=O)CCc2ccc(OC(=O)CCCC(*)=O)cc2)C(=O)OCCCCCCCC)cc1 (repeat unit)	32.50
*CCCCCCCCCN1C(=O)c2ccc(Oc3ccc4c(c3)C(=O)N(*)C4=O)cc2C1=O (repeat unit)	89.00
*CC(*)(C)C(=O)OCCn1c2ccccc2c2cc(/N=N/c3ccc([N+](=O)[O-])cc3[N+](=O)[O-])ccc21 (repeat unit)	182.00
*C(=O)c1ccc2nc(-c3ccccc3)c(-c3ccc(Oc4ccc(-c5nc6cc(*)ccc6nc5-c5ccccc5)cc4)cc3)nc2c1 (repeat unit)	271.00
*CC#CC#CCOc1ccc(C(=O)OCCN(CCOC(=O)c2ccc(O*)cc2)c2ccc(/N=N/c3ccc(/N=N/c4cc(C)c(C#N)c(C)c4)cc3)cc2)cc1 (repeat unit)	120.00
*CCCCCCCCCCCCc1nc2ccc(-c3ccc4nc(*)oc4c3)cc2o1 (repeat unit)	55.00
*CC(*)c1ccc(CCCCCCCCCC)cc1 (repeat unit)	-65.00
*Oc1ccc(/N=C/CCC/C=N/c2ccc(OC(=O)NC3CC(C)(C)CC(C)(CNC(*)=O)C3)cc2)cc1 (repeat unit)	66.00
*Oc1ccc(C(C)(C)c2ccc(Oc3ccc4c(=O)n5c6cc(Oc7ccc8c(c7)nc7c9ccc(*)c%10cccc(c(=O)n87)c%109)ccc6nc5c5cccc3c45)cc2)cc1 (repeat unit)	334.00

Structure (SMILES)	glass transition temperature [°C]
*Cc1ccc(CNC(=O)CCCCCCCCC(=O)N*)cc1 (repeat unit)	115.00
*CC(*)(C)C(=O)OCCOc1ccc(/N=N/c2ccc([N+](=O)[O-])cc2)cc1 (repeat unit)	112.00
*O[Si](*)(C)CCc1cc(C(=O)Oc2ccc(OC)cc2)ccc1C(=O)Oc1ccc(OC)cc1 (repeat unit)	111.00
*Oc1ccc(C(C)(C)c2ccc(Oc3ccc(C(=O)c4c(C)ccc5c(C(=O)c6ccc(*)cc6)c(C)ccc45)cc3)cc2)cc1 (repeat unit)	222.00
*CC(*)c1cccc(F)c1 (repeat unit)	86.00
*Nc1ccc(Cc2ccc(NC(=O)NCCCCCCCCCNC(*)=O)cc2)cc1 (repeat unit)	-50.00
*CC(*)C(=O)OCCOc1ccc(C(=O)Oc2ccc(OC(=O)c3ccc(OCCCC)cc3)cc2)cc1 (repeat unit)	45.00
*CCN(CCOC(=O)Nc1ccc(C)c(NC(=O)O*)c1)c1ccccc1 (repeat unit)	31.90
*O[Si](*)(C)CC (repeat unit)	-133.00
*Nc1cccc(C(=O)c2ccc(NC(=O)c3cccc(C(=O)c4ccc(C(*)=O)cc4)c3)cc2)c1 (repeat unit)	215.00
*Oc1cccc(Oc2cccc(OC(*)=O)c2)c1 (repeat unit)	71.00
*CCOC(=O)Nc1ccc(CCCc2ccc(NC(=O)O*)cc2)cc1 (repeat unit)	74.10
*c1ccc2oc(-c3ccc(Oc4ccc(-c5nc6cc(C(*)(c7ccccc7)C(F)(F)F)ccc6o5)cc4)cc3)nc2c1 (repeat unit)	299.00
*Cc1cc(CNC(=O)CCCCC(=O)N*)cc(C(C)(C)C)c1 (repeat unit)	109.00
*CC(*)C(=O)N1CCOCC1 (repeat unit)	150.00
*CCCCCCCNC(=S)N* (repeat unit)	52.00
*OC1CCCCC1* (repeat unit)	68.50
*Oc1ccc(C(=O)OCCOCCOCCOC(=O)c2ccc(OC(=O)c3ccc(C(*)=O)cc3)cc2)cc1 (repeat unit)	30.00
*Oc1ccc(CC(NC(=O)CCc2ccc(OC(=O)CCCC(*)=O)cc2)C(=O)OCCOCCOCC)cc1 (repeat unit)	21.00
*CCOCCOC(=O)C(CCCCCCCCC)C(=O)O* (repeat unit)	-59.00
*=Cc1ccc(/C=N/c2c(-c3ccccc3)cc(-c3ccc(-c4cc(-c5ccccc5)c(N=*)c(-c5ccccc5)c4)cc3)cc2-c2ccccc2)cc1 (repeat unit)	300.00
*[Si](*)(C)CCC(F)(F)F (repeat unit)	-3.00

Structure (SMILES)	glass transition temperature [°C]
*OC1CCC(OC(=O)C(*)=O)CC1 (repeat unit)	139.60
*NNC(=O)c1ccc(C(*)=O)cc1OCCCCC (repeat unit)	234.00
*CCNC(=O)c1ccc(C(=O)N*)c(Oc2ccccc2)c1 (repeat unit)	164.00
*CCN(*)C(=O)c1cc(F)cc(F)c1 (repeat unit)	106.00
*CC(*)(C)C(=O)OCCCCCCCCCCCCCCC(=O)NC1OC(COC(C)=O)C(OC2OC(COC(C)=O)C(OC(C)=O)C(OC(C)=O)C2OC(C)=O)C(OC(C)=O)C1OC(C)=O (repeat unit)	95.20
*CC(c1ccccc1)C1C(=O)N(CCCN(CC)c2ccc(/N=N/c3ccc([N+](=O)[O-])cc3)c(C)c2)C(=O)C1* (repeat unit)	137.00
*/C=C/C1CC(*)C(C(=O)OCCCCCCOc2ccc(-c3ccc(C#N)cc3)cc2)C1C(=O)OCCCCCCOc1ccc(-c2ccc(C#N)cc2)cc1 (repeat unit)	55.80
*/C=C(/*)CCCOc1ccc(OC(=O)c2ccc(OCCCC)cc2)cc1 (repeat unit)	36.00
*O[Si](c1ccccc1)(c1ccccc1)c1ccc(-c2ccc([Si](*)(c3ccccc3)c3ccccc3)cc2)cc1 (repeat unit)	94.00
*c1cc(CCCCCCCCCC)c(*)s1 (repeat unit)	-30.00 ± 4.2
*c1ccc(Oc2ccc(Oc3ccc(N4C(=O)CC(=O)N(*)C4=S)cc3)cc2)cc1 (repeat unit)	157.00
*/C=C/CC(C*)(C(=O)OC12CC3CC(CC(C3)C1)C2)C(=O)OC12CC3CC(CC(C3)C1)C2 (repeat unit)	34.00
*c1ccc(/C=C(\C#N)C(=O)NC2CCCCC2NC(=O)/C(C#N)=C/c2ccc(N(c3ccccc3)c3ccc(N(*)c4ccccc4)cc3)cc2)cc1 (repeat unit)	239.00
*Oc1cccc(Oc2cccc(NC(=O)c3cc(Oc4ccc(C(=O)O)c(C(=O)Nc5cccc(*)c5)c4)ccc3C(=O)O)c2)c1C#N (repeat unit)	200.10
*Oc1ccc(C2(c3ccc(OC(*)=O)cc3)CCCC2)cc1 (repeat unit)	166.00
*C(C)C(*)C(=O)OC12CC3CC(CC(C3)C1)C2 (repeat unit)	236.50
*c1cc(-c2sc(-c3cc(CCCCCCC)c(*)s3)cc2CCCCCCC)c2cccccc1-2 (repeat unit)	56.00
*c1c(C)cc(-c2cc(C)c(N3C(=O)c4ccc(Oc5ccc(C(C)(C)c6ccc(Oc7ccc8c(c7)C(=O)N(*)C8=O)cc6)cc5)cc4C3=O)c(C)c2)cc1C (repeat unit)	280.00
*c1cccc(P(=O)(c2ccccc2)c2cccc(N3C(=O)c4ccc(NC(=O)OCCOc5ccc(C(c6ccc(OCCOC(=O)Nc7ccc8c(c7)C(=O)N(*)C8=O)cc6)(C(F)(F)F)C(F)(F)F)cc5)cc4C3=O)c2)c1 (repeat unit)	214.00
*Oc1ccc(S(=O)(=O)c2ccc(Oc3ccc(C4(c5ccc(*)cc5)CCCCCC4)cc3)cc2)cc1 (repeat unit)	247.00
*C(=O)Nc1ccc(-c2ccc(N3C(=O)CC(N4C(=O)c5ccc(*)cc5C4=O)C3=O)cc2)cc1 (repeat unit)	219.00
*c1ccc(OCCN(CC)c2ccc(-c3ccc(C(=C(C#N)C#N)c4ccc(N(CC)CC)cc4)s3)cc2)c(-c2cc(-c3ccccc3)c3cc(Oc4ccc5nc(*)cc(-c6ccccc6)c5c4)ccc3n2)c1 (repeat unit)	215.00
